Read-outs that look alike come from different tables or passages of the source.
Assays:
[1] = system: A375M, a human melanoma which expresses αvβ3 integrin; assay: In vivo biodistribution in mice bearing A375M tumors; settings: mouse
Experimental: (§1) In vivo biodistribution studies were performed in mice using A375M, a human melanoma which expresses αvβ3 integrin. MF1 nu/nu mice were given subcutaneous injections of A375M cells into the left inguinal region. Once tumors reached 4-10 mm in size, mice (n=5 mice per time point) were injected with 50 kBq of [^18F]-C7 and sacrificed at 15, 30, and 60 minutes after injection. A second group of animals (n=3) was injected with 50 kBq of [^18F]-C7, sacrificed at 30minutes after injection, and imaged using an ECAT 951R whole body PET scanner.

[2] = system: A375M, a human melanoma which expresses αvβ3 integrin; assay: PET imaging (ECAT 951R) of mice bearing A375M tumors; format: in vivo; settings: 30 minutes after injection
Experimental: as §1

αvβ5 integrin = target: T1, αvβ5 integrin (Homo sapiens, UniProt P06756+P18084); assay: ELISA: biotinylated vitronectin binding to captured soluble αvβ5-mFc in the presence of RGD peptides
T1 construct: chimeras comprising the extracellular domain of αvβ3, αvβ5, α5β1, and αIIbβ3 linked to the Fc domain of either mouse IgG; purchased Celltech plc (supplied, no catalogue number); host or cells: unpurified hybridoma / tissue culture supernatant from secreting cells
Excerpt: (§2) Four different soluble integrins were supplied by Celltech plc. Soluble forms of αvβ3, αvβ5, α5β1, and αIIbβ3 integrin were generated by constructing chimeras comprising the extracellular domain of αvβ3, αvβ5, α5β1, and αIIbβ3 linked to the Fc domain of either mouse IgG (αvβ3-mFc, αvβ5-mFc, and αIIbβ3-mFc) or human IgG (α5β1-hFc) as described by Stephens et al., Cell Adhes. Commun., 7:377-390 (2000) and Coe et al., J. Biol. Chem., 276:35854-35866 (2001). Since the four soluble integrin chimeras were supplied either as purified proteins (αvβ3-mFc and α5β1-hFc) or as unpurified hybridoma supernatants (αIIbβ3-mFc and αvβ5-mFc), it was necessary to use two types of ELISAs. […] In one type of ELISA (FIGS. 2A and 2B), the immobilized component is a 50 kDa fragment of fibronectin. In the second type of ELISA (FIGS. 2C and 2D), the immobilized component is a goat anti-mFc antibody that is used to capture chimeric proteins so that the RGD binding site of the integrin is maximally exposed. Each three-sided box in FIG. 2 represents a single well of a 96-well plate, and the components are listed in the sequence of their addition to the assay. The immobilized component at the bottom of the well is bound to the well by electrostatic interactions.
To analyze the affinity and selectively of RGD peptides for αIIbβ3 and αvβ5, 96-well ELISA plates were coated with anti-murine Fc antibody at 5 μg/ml in PBS, 100 μl per well and left overnight at 4° C. The plates were washed with PBS using a Denley Wellwash 4 Mk 2. Washing was repeated twice with a 400 μl wash per well. 200 μl/well of blocking buffer was then added for 1 hour followed by a repeat washing with PBS. 100 μl of tissue culture supernatant from cells secreting soluble αIIbβ3-mFc or αvβ5-mFc, diluted 1:2 in conjugate buffer, was added to each well. Plates were incubated with shaking for 1 hour followed by two washes with PBS. 100 μl of an RGD peptide (at concentrations of 200, 20, and 2 μM), followed by either 100 μl of biotinylated fibrinogen (at 1 μg/ml in conjugate buffer) or 100 μl of biotinylated vitronectin (at 2 μg/ml in conjugate buffer) were added to each well and incubated for 2 hours with shaking. After incubation, the plates were washed with PBS as described above. 100 μl of neutravidin-peroxidase was added to each well and the plates were incubated for 30 minutes with shaking, followed by two washes with PBS. 100 μl of TMB substrate was added to each well and the plates were shaken during color development. Plates were read using a plate spectrophotometer at 630 nm.
(§3) Two negative and two positive controls were used in both types of ELISAs. For example, the negative controls were wells that contained 50 μl of an active control peptide, integrin, and biotinylated ligand or 50 μl of the active control peptide and 50 μl of buffer. These negative control wells typically develop little to no color. […] These wells typically develop the maximum amount of color.
(§4) FIGS. 3-6 illustrate the percent binding of the vitronectin, fibronectin, or fibrinogen ligand to αvβ5, α5β1, αIIbβ3, or αvβ3 integrin in the presence of RGD peptides (i.e., linear (A), cyclic (B), or 4-[^19F]-fluorobenzoyl cyclic (C)) at different concentrations, with 100% maximum signal being the signal obtained in the absence of the peptide.

α5β1 integrin = target: T2, α5β1 integrin (Homo sapiens, UniProt P05556+P08648); assay: ELISA: soluble α5β1-hFc binding to immobilized 50 kDa fibronectin fragment in the presence of RGD peptides
T2 construct: chimeras comprising the extracellular domain of αvβ3, αvβ5, α5β1, and αIIbβ3 linked to the Fc domain of either mouse IgG; purchased Celltech plc (supplied, no catalogue number)
Excerpt: as §2
To analyze the affinity and selectively of RGD peptides for αvβ3 and α5β1, 96-well ELISA plates were coated with 100 μl of a 5 μg/ml of the 50 kDa fragment of fibronectin in PBS per well and left overnight at 4° C. The plates were washed with PBS using a Denley Wellwash 4 Mk 2. Washing was repeated twice with a 400 μl wash per well. 200 μ/well of blocking buffer (i.e., to prevent non-specific binding of proteins) was then added for 1 hour followed by a repeat washing with PBS. RGD peptides were then added at a maximum concentration of 200 μM and a preliminary screen was performed at three concentrations, 200,20, and 2 μM. 100 μl of an RGD peptide was added to each well and each assay was performed in triplicate. Purified soluble αvβ3-mFc or purified α5β1-hFc was diluted to 2 μg/ml and 15 ng/ml, respectively, in conjugate buffer and 100 μl was added to each well. The plates were incubated for 2 hours with shaking using a Luckham R100 Rotatest at approximately 150 rpm. After incubation, the plates were washed with PBS as previously described and a labeled antibody was added. For the αvβ3 assay, a horseradish peroxidase (HRP)-labeled F(ab′)2 fragment of goat anti-mouse IgG Fc was diluted 1:2000 in conjugate buffer and 100 μl was added to each well. For the α5β1 assay, an HRP-labeled F(ab′)2 fragment of goat anti-human IgG Fc was diluted 1:2000 in conjugate buffer and 100 μl was added to each well. Plates were incubated for 30 minutes with shaking followed by 2 washes with PBS. 100 μl of TMB substrate was added to each well and plates were shaken during a 10 minute color development. Plates were read using a plate spectrophotometer at 630 nm.
as §3, §4

αIIbβ3 integrin = target: T3, αIIbβ3 integrin (Homo sapiens, UniProt P05106+P08514); assay: ELISA: biotinylated fibrinogen binding to captured soluble αIIbβ3-mFc in the presence of RGD peptides
T3 construct: chimeras comprising the extracellular domain of αvβ3, αvβ5, α5β1, and αIIbβ3 linked to the Fc domain of either mouse IgG; purchased Celltech plc (supplied, no catalogue number); host or cells: unpurified hybridoma / tissue culture supernatant from secreting cells
Excerpt: as §2
The plates were washed with PBS using a Denley Wellwash 4 Mk 2. Washing was repeated twice with a 400 μl wash per well. 200 μl/well of blocking buffer was then added for 1 hour followed by a repeat washing with PBS. 100 μl of tissue culture supernatant from cells secreting soluble αIIbβ3-mFc or αvβ5-mFc, diluted 1:2 in conjugate buffer, was added to each well. […] After incubation, the plates were washed with PBS as described above. 100 μl of neutravidin-peroxidase was added to each well and the plates were incubated for 30 minutes with shaking, followed by two washes with PBS. 100 μl of TMB substrate was added to each well and the plates were shaken during color development. Plates were read using a plate spectrophotometer at 630 nm.
(§5) Two negative and two positive controls were used in both types of ELISAs.
as §4

αvβ3 integrin = target: T4, αvβ3 integrin (Homo sapiens, UniProt P05106+P06756); assay: ELISA: soluble αvβ3-mFc binding to immobilized 50 kDa fibronectin fragment in the presence of RGD peptides; settings: Table 2, no unit printed (b200 gives same values in μM)
T4 construct: chimeras comprising the extracellular domain of αvβ3, αvβ5, α5β1, and αIIbβ3 linked to the Fc domain of either mouse IgG; purchased Celltech plc (supplied, no catalogue number)
Excerpt: as §2
The plates were washed with PBS using a Denley Wellwash 4 Mk 2. Washing was repeated twice with a 400 μl wash per well. […] Plates were read using a plate spectrophotometer at 630 nm.
as §5, §4

T3 sequence (P08514 32-993 limits assumed): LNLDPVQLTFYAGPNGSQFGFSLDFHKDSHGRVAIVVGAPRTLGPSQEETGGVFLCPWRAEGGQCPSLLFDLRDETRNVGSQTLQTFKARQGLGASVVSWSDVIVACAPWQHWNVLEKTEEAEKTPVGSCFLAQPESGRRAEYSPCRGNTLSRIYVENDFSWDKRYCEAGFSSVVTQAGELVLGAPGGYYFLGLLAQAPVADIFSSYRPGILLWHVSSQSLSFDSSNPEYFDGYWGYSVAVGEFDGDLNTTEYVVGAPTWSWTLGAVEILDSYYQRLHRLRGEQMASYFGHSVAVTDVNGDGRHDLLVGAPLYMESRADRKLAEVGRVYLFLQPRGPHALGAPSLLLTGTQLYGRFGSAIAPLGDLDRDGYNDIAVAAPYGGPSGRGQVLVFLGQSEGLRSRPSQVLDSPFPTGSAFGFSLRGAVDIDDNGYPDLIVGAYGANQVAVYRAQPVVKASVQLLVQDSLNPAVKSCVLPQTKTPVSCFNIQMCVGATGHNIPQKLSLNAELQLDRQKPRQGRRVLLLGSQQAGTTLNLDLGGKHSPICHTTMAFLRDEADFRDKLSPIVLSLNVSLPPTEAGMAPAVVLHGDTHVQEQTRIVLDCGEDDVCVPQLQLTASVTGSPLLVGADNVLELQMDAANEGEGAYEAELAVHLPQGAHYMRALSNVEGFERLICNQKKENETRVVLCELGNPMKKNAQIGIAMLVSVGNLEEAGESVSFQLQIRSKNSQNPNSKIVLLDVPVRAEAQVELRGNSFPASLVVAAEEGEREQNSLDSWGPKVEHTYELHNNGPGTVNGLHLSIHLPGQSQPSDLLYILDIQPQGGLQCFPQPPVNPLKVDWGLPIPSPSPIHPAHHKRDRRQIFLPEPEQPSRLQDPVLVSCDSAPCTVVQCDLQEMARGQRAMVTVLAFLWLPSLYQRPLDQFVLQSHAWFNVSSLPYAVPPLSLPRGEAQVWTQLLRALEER
T3 sequence (P05106 27-718 limits assumed): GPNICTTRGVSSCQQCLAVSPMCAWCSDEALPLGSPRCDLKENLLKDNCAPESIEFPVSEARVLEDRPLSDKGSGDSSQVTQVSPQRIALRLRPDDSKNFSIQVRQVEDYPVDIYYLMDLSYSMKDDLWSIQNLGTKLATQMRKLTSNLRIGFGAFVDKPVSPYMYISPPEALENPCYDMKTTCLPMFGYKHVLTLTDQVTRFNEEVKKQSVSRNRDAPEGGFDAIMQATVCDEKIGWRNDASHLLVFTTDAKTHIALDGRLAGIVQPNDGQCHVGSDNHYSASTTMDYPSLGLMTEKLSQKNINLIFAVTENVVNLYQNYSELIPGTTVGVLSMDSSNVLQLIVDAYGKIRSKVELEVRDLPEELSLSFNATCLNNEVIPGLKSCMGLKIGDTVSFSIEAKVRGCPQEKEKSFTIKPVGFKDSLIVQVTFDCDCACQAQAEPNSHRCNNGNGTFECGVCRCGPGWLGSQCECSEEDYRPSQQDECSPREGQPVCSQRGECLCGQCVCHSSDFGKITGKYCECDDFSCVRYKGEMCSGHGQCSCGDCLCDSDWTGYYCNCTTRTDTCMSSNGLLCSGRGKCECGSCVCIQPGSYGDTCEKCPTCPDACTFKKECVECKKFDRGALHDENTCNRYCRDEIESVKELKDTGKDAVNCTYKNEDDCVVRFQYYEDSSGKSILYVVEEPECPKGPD
T1 sequence (P06756 31-992 limits assumed): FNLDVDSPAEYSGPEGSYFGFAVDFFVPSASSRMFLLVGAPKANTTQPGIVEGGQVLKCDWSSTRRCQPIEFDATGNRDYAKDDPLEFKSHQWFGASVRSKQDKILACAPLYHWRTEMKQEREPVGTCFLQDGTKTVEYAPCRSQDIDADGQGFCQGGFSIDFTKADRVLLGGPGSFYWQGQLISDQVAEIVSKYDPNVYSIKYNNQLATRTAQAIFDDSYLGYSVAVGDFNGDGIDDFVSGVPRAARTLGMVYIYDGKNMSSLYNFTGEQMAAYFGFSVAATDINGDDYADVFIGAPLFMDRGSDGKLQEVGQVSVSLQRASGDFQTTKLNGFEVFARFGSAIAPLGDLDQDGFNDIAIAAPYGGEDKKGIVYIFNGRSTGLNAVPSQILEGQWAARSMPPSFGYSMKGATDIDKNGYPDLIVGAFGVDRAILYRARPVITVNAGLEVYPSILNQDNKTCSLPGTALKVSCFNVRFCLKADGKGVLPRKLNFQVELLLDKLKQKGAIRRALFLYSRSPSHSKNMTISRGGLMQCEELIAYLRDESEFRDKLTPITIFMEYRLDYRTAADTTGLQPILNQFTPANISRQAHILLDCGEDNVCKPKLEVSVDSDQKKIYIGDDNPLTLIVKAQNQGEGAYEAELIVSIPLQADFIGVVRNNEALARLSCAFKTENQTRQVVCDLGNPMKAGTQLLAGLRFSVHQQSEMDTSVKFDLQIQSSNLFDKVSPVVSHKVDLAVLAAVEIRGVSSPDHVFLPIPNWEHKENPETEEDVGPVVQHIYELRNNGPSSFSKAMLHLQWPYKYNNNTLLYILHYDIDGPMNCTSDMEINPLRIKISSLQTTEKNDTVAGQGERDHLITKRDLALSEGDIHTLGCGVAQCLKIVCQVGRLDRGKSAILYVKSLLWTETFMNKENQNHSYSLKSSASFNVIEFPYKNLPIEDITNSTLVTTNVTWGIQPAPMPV
T1 sequence (P18084 24-719 limits assumed): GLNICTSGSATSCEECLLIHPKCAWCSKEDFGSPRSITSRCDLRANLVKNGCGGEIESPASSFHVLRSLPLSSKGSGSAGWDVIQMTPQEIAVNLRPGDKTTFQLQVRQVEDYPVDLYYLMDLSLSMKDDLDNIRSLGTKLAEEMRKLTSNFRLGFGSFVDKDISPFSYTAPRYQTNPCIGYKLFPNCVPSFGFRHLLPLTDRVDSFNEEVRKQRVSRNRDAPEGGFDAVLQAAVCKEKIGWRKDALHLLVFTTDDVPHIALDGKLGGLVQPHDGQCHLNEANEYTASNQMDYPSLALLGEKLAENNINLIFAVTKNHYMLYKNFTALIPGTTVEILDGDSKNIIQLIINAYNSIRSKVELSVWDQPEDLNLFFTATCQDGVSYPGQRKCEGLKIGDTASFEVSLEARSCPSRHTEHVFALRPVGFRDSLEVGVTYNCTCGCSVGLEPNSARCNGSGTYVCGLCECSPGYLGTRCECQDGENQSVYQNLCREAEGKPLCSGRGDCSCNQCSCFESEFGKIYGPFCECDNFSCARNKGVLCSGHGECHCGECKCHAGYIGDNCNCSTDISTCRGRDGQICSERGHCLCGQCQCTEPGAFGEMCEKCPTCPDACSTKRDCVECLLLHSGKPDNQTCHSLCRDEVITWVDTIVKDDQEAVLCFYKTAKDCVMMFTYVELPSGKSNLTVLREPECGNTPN
T2 sequence (P08648 42-995 limits assumed): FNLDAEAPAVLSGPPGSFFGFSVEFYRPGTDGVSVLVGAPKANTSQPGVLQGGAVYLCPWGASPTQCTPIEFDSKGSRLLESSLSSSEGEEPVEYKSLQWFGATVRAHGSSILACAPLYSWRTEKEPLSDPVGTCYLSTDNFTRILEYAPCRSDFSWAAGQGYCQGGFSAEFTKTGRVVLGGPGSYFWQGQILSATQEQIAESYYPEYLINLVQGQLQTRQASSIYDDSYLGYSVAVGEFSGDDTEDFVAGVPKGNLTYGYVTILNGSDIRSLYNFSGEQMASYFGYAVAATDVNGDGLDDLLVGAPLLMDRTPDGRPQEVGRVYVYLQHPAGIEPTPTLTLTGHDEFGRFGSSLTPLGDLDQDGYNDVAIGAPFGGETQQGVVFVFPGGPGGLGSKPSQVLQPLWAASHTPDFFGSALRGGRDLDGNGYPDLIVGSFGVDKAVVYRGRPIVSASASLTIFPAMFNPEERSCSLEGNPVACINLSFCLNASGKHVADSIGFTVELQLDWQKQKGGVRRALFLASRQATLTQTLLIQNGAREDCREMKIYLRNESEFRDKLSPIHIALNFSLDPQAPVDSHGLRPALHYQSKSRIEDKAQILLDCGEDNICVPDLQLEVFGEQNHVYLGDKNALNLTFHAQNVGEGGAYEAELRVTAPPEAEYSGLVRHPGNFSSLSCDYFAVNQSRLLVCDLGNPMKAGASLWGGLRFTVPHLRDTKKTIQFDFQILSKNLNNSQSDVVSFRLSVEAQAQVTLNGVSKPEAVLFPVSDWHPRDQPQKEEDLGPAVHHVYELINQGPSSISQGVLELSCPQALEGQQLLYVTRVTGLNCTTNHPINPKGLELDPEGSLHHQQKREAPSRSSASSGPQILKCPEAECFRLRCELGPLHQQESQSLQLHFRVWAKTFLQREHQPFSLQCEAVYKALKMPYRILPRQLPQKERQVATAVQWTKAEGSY
T2 sequence (P05556 21-728 limits assumed): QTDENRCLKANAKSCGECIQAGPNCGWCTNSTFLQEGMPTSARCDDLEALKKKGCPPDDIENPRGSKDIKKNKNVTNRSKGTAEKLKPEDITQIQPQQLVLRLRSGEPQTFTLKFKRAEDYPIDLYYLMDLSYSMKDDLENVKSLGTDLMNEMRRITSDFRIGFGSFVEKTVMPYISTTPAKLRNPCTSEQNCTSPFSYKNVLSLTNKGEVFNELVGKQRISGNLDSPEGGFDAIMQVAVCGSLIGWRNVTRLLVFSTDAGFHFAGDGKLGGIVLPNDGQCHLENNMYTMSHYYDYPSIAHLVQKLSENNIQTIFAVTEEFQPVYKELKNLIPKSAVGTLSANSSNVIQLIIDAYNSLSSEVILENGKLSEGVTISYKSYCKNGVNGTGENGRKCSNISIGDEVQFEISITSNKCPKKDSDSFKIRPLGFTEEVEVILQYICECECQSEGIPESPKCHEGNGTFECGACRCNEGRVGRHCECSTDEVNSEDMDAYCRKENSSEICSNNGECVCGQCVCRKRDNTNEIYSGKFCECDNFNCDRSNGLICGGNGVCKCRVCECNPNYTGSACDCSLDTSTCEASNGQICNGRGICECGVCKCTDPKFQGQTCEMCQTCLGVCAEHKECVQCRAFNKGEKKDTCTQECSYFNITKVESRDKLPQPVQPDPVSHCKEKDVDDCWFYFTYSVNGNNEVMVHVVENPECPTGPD
T4 sequence (P06756 31-992 limits assumed): as the sequence (P06756 31-992 limits assumed) above
T4 sequence (P05106 27-718 limits assumed): as the sequence (P05106 27-718 limits assumed) above

Molecule: 4-[^18F]-fluorobenzoyl cyclic (RGDY(OMe)K) [[^18F]-C7]
- tumor to organ ratio, heart [1]: 5.83
- tumor to organ ratio, lung [1]: 2.33
- tumor to organ ratio, muscle [1]: 11.67
- tumor to organ ratio, skin [1]: 1.6
- uptake in PET images [2]: distinct areas of [^18F]-C7 uptake in the lower region of the mouse

Molecule: COc1ccc(C[C@@H]2NC(=O)[C@H](CC(=O)O)NC(=O)CNC(=O)[C@H](CCCNC(=N)N)NC(=O)[C@H](CCCCNC(=O)c3ccc(F)cc3)NC2=O)cc1 [C7, 4-[^19F]-fluorobenzoyl cyclic (RGDY(OMe)K)]
- vitronectin binding to αvβ5, % of the maximum signal (αvβ5 integrin; 2 μM peptide, 100% = signal without peptide): 26.1%
- IC50 (αvβ5 integrin; text b200, read-out: IC50 for αvβ5): 1.69 µM
- fibronectin binding to α5β1, % of the maximum signal (α5β1 integrin; 2 μM peptide): 47%
- IC50 (α5β1 integrin; text b200, read-out: IC50 for α5β1): 0.481 µM

Molecule: N=C(N)NCCC[C@@H]1NC(=O)[C@H](CCCCNC(=O)c2ccc(F)cc2)NC(=O)[C@@H](Cc2ccccc2)NC(=O)[C@H](CC(=O)O)NC(=O)CNC1=O [C10]
- IC50 (αvβ5 integrin; Table 2, no unit printed (b200 gives same values in μM), read-out: Mean IC50, αvβ5): 6.01 µM
- IC50 (α5β1 integrin; Table 2, no unit printed (b200 gives same values in μM), read-out: Mean IC50, α5β1): 1.37 µM
- fibrinogen binding to αIIbβ3 (αIIbβ3 integrin; 200 nM peptide): 42.1%
- fibrinogen binding to αIIbβ3, % of the maximum signal (αIIbβ3 integrin; 2 μM peptide): 21.9%
- IC50 (αIIbβ3 integrin; Table 2, no unit printed (b200 gives same values in μM)): 1.23 µM
- IC50 (αvβ3 integrin): 0.018 µM

— patent US20060029544A1, “Receptor-binding cyclic peptides and methods of use” (The Regents of the University of California Office of …, priority 2004, published 2006)
